Data on twelve compounds can be found in patent US20060179492A1, “Method of inhibiting neural transmission mediated by serotonin-2a and enhancing sensorimotor gating” (The Regents of the University of California, priority 2002, published 2006).

One data set has as its system PPI. The settings on record: sedating psychotropic drug without antipsychotic properties; cited from earlier work.
The next data set relates to BB rats. The data set can be described thus: Catalepsy bar test. It is filed as in vivo, Brattleboro rats. The conditions noted are these: 30 min after SC: haloperidol 1 mg/kg (P<0.001), clozapine 10 or 15 mg/kg, PD149163 1 or 2 mg/kg; versus saline. The method, then: Doses selected were those that produced the greatest effect in the PPI studies. Thirty minutes after SC injections animals were tested in the using a method described by several other authors (Stanley and Glick, 1976; Costall et al., 1978; Wadenberg, 1996). This method involved placing the forepaws of each rat in an extended position over a pencil that was suspended horizontally 9 cm above the lab bench. The time spent in this position before the animal moved or corrected itself was considered a measure of catalepsy.

Data set [1] concerns PPI deficits produced by the alpha-1 adrenergic agonist cirazoline. The data set can be described thus: Cirazoline-induced disruption of prepulse inhibition (PPI) of the startle reflex. In kind it is in vivo, Sprague Dawley rats. The conditions noted are these: for PPI of saline/cirazoline rats versus saline/saline rats: cirazoline 0.7 mg/kg SC. The method, then:
(§1) Animals: Ninety-six male Sprague Dawley rats (250-300 grams at testing) were obtained from Harlan Laboratories, San Diego. In the experiments of Example 1, all groups contained an n of 8. Animals were housed in groups of two or three in clear plastic chambers in a climate controlled room on a 12:12 hour light/dark cycle (lights on 7:00 a.m.-7:00 p.m.). The rats were handled prior to testing. All testing occurred during the light phase of the rats' circadian illumination schedule and they were allowed free access to food and water for the extent of the study, except during the actual testing. Behavioral testing was performed between 9:00 am and 4:30 pm beginning 7 days after arrival. All studies described in this publication were carried out in accordance with the “Principles of laboratory and animal care” as described in the Guide for the Care and Use of Laboratory Animals as adopted and promulgated by the National Institutes of Health.
(§2) Drugs: PD149163 (LysΨ(CH2NH)-Lys-Pro-Trp-tLeu-Leu-OEt) was generously made available by the NIMH Chemical Synthesis and Drug Supply Program, and SR1 International, Menlo Park, Calif. NT69L (N-methyl-Arg-Lys-Pro-L-neo-Trp-tLeu-Leu) was developed at Mayo Clinic, Jacksonville, Fla., as described in Tyler-McMahon et al. 2000. DOI and cirazoline hydrochloride were obtained from Sigma Chemicals, St. Louis, Mo. All drugs used were dissolved in saline.
(§3) Startle Testing and Test Sessions. Startle testing was performed in four identical startle chambers obtained from San Diego Instruments (San Diego, Calif.). Each chamber consisted of a clear non-restrictive Plexiglass cylinder resting on a Plexiglass platform inside a ventilated and illuminated enclosure housed in a sound-attenuated room. A continuous background noise of 65 dB, as well as the various acoustic stimuli, was produced within each chamber by a high-frequency loudspeaker (Radio Shack Supertweeter, San Diego, Calif.). The whole-body startle response of each animal produced vibrations of the Plexiglass cylinder, which were transduced into analog signals by a piezoelectric unit, mounted underneath the Plexiglass platform (Mansbach et al., 1988). These analog signals were then digitized and stored by an interface unit connected to a microcomputer. Startle amplitude was defined as the degree of motion detected by the piezoelectric unit.
(§4) The animals were subjected to a 5-minute acclimation to the 65 dB background noise, which continued throughout the session. The acclimation was followed by a 15 minute PPI test session. Five trial types were presented during the test session: 40 msec 120 dB startle pulses (PULSE-ALONE), startle pulses preceded 100 msecs by 20 msec prepulses of either 4, 8, or 12 dB above background, and NO-[…] trials. All trial types were presented in pseudo-random order separated by an average of 15 seconds. In addition, four PULSE-ALONE trials that were not used in the calculation of PPI values were presented at the beginning and at the end of the test session, to habituate animals to the pulse and in order to provide a measure of habituation across the session.
PD149163 versus cirazoline. Thirty-two drug-naïve rats were administered SC injections of the following doses of PD149163, 0 (saline), 0.01, 0.1, or 1 mg/kg. Thirty minutes later, they were injected SC with either saline or cirazoline (0.7 mg/kg), a dose known to reliably disrupt PPI. Animals were tested in startle chambers thirty minutes later and PPI measured as described. […]

The subject of data set [2] is PPI deficits produced by the serotonin-2A agonist DOI. Briefly: DOI-induced disruption of prepulse inhibition (PPI) of the startle reflex. In kind it is in vivo, Sprague Dawley rats. The settings on record: for startle magnitude (main effect, ANOVA): NT69L versus DOI experiment. Here is the method: as §1, §2, §3, §4
NT69L versus DOI. Thirty-two drug-naïve rats were administered subcutaneous (SC) injections of the following doses of NT69L, 0 (saline), 0.1, 1, or 2 mg/kg. Thirty minutes later, they were injected SC with either saline or DOI (0.5 mg/kg), a dose known to reliably disrupt PPI. Animals were tested in startle chambers thirty minutes later and PPI measured as described. After one week, animals were tested a second time during which treatment and testing procedures were the same except that rats that previously received DOI received saline and vice versa. The dose of NT69L was kept constant on both test days.
Data and Statistical Analysis. A startle response was recorded for all stimuli presentations. […]

The test system of data set [3] is alpha-1 adrenergic receptors. The conditions noted are these: cited from earlier work.
The next data set relates to monoamine receptors. The settings on record: cited from earlier work.
For a further data set, the target named is serotonin-2A receptor (Homo sapiens, UniProt P28223). The settings on record: cited from earlier work.
Sequence of serotonin-2A receptor (P28223 whole entry): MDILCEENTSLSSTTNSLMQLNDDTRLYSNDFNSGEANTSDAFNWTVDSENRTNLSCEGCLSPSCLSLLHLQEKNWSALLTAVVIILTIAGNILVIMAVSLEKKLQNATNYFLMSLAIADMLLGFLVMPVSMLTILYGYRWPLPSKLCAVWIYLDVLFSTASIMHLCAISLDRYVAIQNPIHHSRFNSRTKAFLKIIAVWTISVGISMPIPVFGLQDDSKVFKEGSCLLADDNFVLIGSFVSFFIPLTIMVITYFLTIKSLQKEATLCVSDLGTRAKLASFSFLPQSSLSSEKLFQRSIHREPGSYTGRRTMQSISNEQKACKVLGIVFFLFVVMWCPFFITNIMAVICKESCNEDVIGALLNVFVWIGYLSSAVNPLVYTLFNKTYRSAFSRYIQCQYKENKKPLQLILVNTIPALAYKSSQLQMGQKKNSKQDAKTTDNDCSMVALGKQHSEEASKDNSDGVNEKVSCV
In data set [4] the test system is PPI deficits produced by DOI. The conditions noted are these: reported by Geyer et al.; cited from earlier work.
Another data set concerns Brown Norway (BN) rats. Briefly: PPI in Brown Norway rats with low PPI. In kind it is in vivo. The conditions noted are these: acute administration.

Structures can show the parent of a compound that is named as a salt.

`CN1C(=O)CN=C(c2ccccc2)c2cc(Cl)ccc21` [diazepam]: the “effect on PPI” value with PPI is on record as “decrease rather than facilitate PPI”.
As to `CN1CCN(C2=Nc3cc(Cl)ccc3Nc3ccccc32)CC1` [clozapine], the “catalepsy: time rats remained on the bar” value in the data set on BB rats is “no dose of clozapine or PD149163 significantly increased”.
Regarding “N-methyl-Arg-Lys-Pro-L-neo-Trp-tLeu-Leu [NT69L]”, in data set [1] (NT69L 1 mg/kg SC 30 min before cirazoline 0.7 mg/kg SC), the “effect on cirazoline-induced PPI deficits” value is “blocked the PPI deficits produced by cirazoline”. Moreover, the “startle versus rats that received cirazoline and saline” value in data set [1] (cirazoline + NT69L 1 mg/kg SC, P<0.05) was “significantly lower”. The “startle magnitude (main effect, ANOVA)” value in [1] (cirazoline experiments, PD149163 P<0.05, NT69L P<0.01) was “significant main effect”; in [2] it was “no significant main effect”. The “PPI versus rats that received DOI/saline” value in data set [2] (NT69L 0.1 mg/kg SC + DOI 0.5 mg/kg SC, P<0.001) was “significantly greater than PPI exhibited by rats that received DOI/saline”; in data set [2] (NT69L 1 mg/kg SC + DOI 0.5 mg/kg SC, P<0.05) it was “significantly greater than PPI exhibited by rats that received DOI/saline”; in data set [2] (NT69L 2 mg/kg SC + DOI 0.5 mg/kg SC, P<0.01), “significantly greater than PPI exhibited by rats that received DOI/saline”. Also, in data set [2] (all three active doses of NT69L (0.1, 1, 2 mg/kg SC) 30 min before DOI 0.5 mg/kg SC, tested 30 min later), the “effect on DOI-induced PPI deficits” value is recorded as “blocked the PPI deficits produced by DOI”. In addition, in [3], the “binding to alpha-1 adrenergic receptors” value is “neither PD149163 or NT69L bind”. Moreover, the “affinity for monoamine receptors” value with monoamine receptors is “minimal affinity”. In addition, the “binding to serotonin-2A receptors” value on serotonin-2A receptor is “neither PD149163 or NT69L bind”.
`O=C(c1ccc(F)cc1)C1CCN(CCn2c(=O)[nH]c3ccccc3c2=O)CC1` [ketanserin]: in [4], the “effect on PPI deficits produced by DOI” value was “antagonize PPI deficits produced by DOI”.
As for `COc1cccc([C@H](O)C2CCN(CCc3ccc(F)cc3)CC2)c1OC` [MDL100907], the “effect on PPI deficits produced by DOI” value in [4] was “antagonize PPI deficits produced by DOI”.
For `c1ccc(C2CC2)c(OCC2=NCCN2)c1` [cirazoline, cirazoline hydrochloride], the “PPI of saline/cirazoline rats versus saline/saline rats” value in data set [1] (NT69L experiment, P<0.05) is listed as “significantly decreased PPI”; in data set [1] (PD149163 experiment, P<0.01), “significantly decreased PPI”.
In the case of `COc1cc(CC(C)N)c(OC)cc1I.Cl` (centres unmarked) [DOI, 1-(2,5-dimethoxy-4-iodophenyl)-2-aminopropane hydrochloride], in data set [2] (DOI 0.5 mg/kg SC, P<0.001), the “PPI of saline/DOI rats versus saline/saline rats” value is “significantly decreased PPI”. Further, the “startle magnitude (main effect, ANOVA)” value in [2] is recorded as “no significant main effect”.
For `CC(C)NCC(O)COc1cccc2ccccc12` (centres unmarked) [propanolol], in data set [4], the “effect on PPI deficits produced by DOI” value is given as “do not block DOI-induced PPI deficits”.
In the case of `O=C(CCCN1CCC(O)(c2ccc(Cl)cc2)CC1)c1ccc(F)cc1` [haloperidol], the “catalepsy: time rats remained on the bar” value in the data set on BB rats was “significantly increased the time rats remained on the bar”. Also, in the data set on Brown Norway (BN) rats, the “PPI in BN rats” value is “did not enhance PPI”. In data set [4], the “effect on PPI deficits produced by DOI” value was “do not block DOI-induced PPI deficits”.
For the compound `Cc1nc2n(c(=O)c1CCN1CCC(c3noc4cc(F)ccc34)CC1)CCCC2` [risperidone], the “effect on PPI deficits produced by DOI” value in [4] was “antagonize PPI deficits produced by DOI”.
For `CCN1CCC[C@H]1CNC(=O)c1c(O)c(Cl)cc(Cl)c1OC` [raclopride], the “effect on PPI deficits produced by DOI” value in data set [4] is “do not block DOI-induced PPI deficits”.
On to `CN1CC[C@@H]2CN3CCc4cccc(c43)[C@@H]2C1.O=C(O)/C=C/C(=O)O` [SDZ SER-082], for which, in [4], the “effect on PPI deficits produced by DOI” value is given as “do not block DOI-induced PPI deficits”.
